From ChEMBL document CHEMBL1201862, “PubChem BioAssay data set” (2004) come the findings set out here.

The target of test [1] is Peroxisome proliferator-activated receptor gamma/Nuclear receptor coactivator 3 (Homo sapiens, UniProt P37231). In words: TR-FRET dose response biochemical High Throughput Screening assay for agonists of the steroid receptor coactivator 3 (SRC-3) recruitment by the peroxisome proliferator-activated receptor gamma (PPAR gamma): non-selective agonists. [Related pubchem assays: 1301 (Confirmation screen.), 1048 (Primary screen.)]. The test is classed as functional. (TR-FRET usually uses a lanthanide donor and a delayed reading to cut background.)

Test [2] concerns the target T1, Heat shock factor protein 1 (Mus musculus, UniProt P38532).
T1 sequence (P38532 whole entry): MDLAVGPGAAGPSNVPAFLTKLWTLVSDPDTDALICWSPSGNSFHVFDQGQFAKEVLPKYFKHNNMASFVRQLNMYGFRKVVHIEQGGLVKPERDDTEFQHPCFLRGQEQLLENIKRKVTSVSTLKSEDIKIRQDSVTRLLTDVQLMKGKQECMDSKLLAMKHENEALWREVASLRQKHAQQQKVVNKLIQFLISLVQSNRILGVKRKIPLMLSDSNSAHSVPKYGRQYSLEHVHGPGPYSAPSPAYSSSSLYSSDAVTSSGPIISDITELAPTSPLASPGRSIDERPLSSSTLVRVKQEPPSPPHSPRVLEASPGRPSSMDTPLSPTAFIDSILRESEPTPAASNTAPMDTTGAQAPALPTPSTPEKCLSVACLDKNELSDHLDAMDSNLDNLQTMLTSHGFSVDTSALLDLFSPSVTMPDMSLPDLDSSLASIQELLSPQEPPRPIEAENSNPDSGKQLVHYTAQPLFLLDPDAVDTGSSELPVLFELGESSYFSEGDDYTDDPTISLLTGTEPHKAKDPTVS
The experiment in a line: decrease of HSF1-responsive luciferase luminescence – cell-based, NIH3T3, dose retest, confirmation (AID 2382).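 Also: NIH3T3 fibroblasts with HSF1-driven luciferase reporter stressed by proteasome inhibitor MG132; luminescence from HSF1-driven luciferase expression after 8 hours of MG132 stress.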 Type of test: functional.

Test [3] concerns the target Peroxisome proliferator-activated receptor gamma/Nuclear receptor coactivator 2 (Homo sapiens, UniProt P37231). The experiment in a line: TR-FRET dose response biochemical High Throughput Screening assay for agonists of the steroid receptor coactivator 2 (SRC-2) recruitment by the peroxisome proliferator-activated receptor gamma (PPAR gamma): non-selective agonists. [Related pubchem assays: 1297, 1032 ]. Type of test: functional.

The target of test [4] is Peroxisome proliferator-activated receptor gamma/Nuclear receptor coactivator 1 (Homo sapiens, UniProt P37231). The experiment in a line: TR-FRET dose response biochemical High Throughput Screening assay for agonists of the steroid receptor coactivator 1 (SRC-1) recruitment by the peroxisome proliferator-activated receptor gamma (PPAR gamma): non-selective agonists. [Related pubchem assays (depositor defined):AID1300, AID1808, AID504735, AID631]. Type of test: protein assay.
Chain of Peroxisome proliferator-activated receptor gamma/Nuclear receptor coactivator 1 (P37231 whole entry): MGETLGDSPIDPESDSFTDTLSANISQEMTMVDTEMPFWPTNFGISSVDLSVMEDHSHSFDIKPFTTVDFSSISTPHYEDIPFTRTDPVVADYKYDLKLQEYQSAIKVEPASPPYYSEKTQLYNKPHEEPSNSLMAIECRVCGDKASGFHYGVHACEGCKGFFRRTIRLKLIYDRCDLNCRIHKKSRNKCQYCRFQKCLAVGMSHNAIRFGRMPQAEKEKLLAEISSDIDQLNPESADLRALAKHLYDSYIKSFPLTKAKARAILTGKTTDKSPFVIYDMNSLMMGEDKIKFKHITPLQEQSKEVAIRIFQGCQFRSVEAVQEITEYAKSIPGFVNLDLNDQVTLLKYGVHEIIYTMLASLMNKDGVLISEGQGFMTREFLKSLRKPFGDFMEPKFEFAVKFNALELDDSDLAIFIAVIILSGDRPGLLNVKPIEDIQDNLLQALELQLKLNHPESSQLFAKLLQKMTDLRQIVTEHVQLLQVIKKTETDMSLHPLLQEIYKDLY
Chain of Peroxisome proliferator-activated receptor gamma/Nuclear receptor coactivator 1 (Q15788 whole entry, further chain): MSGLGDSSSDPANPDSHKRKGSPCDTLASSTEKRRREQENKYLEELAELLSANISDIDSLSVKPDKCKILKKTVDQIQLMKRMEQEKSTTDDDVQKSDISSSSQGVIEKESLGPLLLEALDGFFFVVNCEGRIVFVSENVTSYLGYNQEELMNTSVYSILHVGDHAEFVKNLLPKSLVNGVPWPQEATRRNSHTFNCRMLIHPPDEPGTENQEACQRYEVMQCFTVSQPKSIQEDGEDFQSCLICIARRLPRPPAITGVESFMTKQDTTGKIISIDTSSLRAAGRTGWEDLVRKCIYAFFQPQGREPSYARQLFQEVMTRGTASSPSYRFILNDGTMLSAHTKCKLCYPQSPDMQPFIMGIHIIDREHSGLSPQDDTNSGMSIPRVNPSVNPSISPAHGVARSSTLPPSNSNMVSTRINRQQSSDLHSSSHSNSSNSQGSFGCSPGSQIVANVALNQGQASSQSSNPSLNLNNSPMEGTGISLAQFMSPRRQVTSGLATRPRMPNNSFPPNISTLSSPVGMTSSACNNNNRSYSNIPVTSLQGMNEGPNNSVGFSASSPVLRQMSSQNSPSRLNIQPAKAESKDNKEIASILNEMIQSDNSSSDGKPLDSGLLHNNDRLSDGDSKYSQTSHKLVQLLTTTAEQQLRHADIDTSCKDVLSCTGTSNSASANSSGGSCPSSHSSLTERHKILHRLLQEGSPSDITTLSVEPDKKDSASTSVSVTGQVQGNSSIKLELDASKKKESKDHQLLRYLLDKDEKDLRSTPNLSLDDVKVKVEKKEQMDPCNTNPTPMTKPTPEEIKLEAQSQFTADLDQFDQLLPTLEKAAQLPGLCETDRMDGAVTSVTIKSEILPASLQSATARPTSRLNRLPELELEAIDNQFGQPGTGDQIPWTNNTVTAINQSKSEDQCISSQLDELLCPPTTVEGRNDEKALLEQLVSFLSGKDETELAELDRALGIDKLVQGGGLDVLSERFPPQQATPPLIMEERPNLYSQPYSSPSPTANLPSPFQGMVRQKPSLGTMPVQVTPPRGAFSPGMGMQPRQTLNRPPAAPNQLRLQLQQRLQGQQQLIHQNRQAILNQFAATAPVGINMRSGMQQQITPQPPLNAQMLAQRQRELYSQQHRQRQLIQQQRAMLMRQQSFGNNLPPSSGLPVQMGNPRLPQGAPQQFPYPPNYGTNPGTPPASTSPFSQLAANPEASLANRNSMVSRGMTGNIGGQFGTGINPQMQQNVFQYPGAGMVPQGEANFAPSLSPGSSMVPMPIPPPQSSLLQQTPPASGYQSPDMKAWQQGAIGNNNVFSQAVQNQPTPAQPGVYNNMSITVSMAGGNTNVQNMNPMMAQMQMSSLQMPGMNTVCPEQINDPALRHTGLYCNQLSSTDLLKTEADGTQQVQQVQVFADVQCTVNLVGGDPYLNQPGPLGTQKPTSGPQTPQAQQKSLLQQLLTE

Test [5] deals with HT-1080. In words: HT1080 cell viability loss – fluorescence readout (AID 620). Type of test: functional, cell-based. The conditions noted are these: Homo sapiens.
In test [6] the target is T2, Estrogen receptor beta (Homo sapiens, UniProt Q92731). In words: blockers of SRC-3 recruitment to ERβ – biochemical, ELISA, streptavidin-HRP readout, orthogonal assay, confirmation (AID 1060).
T2 sequence (Q92731 whole entry): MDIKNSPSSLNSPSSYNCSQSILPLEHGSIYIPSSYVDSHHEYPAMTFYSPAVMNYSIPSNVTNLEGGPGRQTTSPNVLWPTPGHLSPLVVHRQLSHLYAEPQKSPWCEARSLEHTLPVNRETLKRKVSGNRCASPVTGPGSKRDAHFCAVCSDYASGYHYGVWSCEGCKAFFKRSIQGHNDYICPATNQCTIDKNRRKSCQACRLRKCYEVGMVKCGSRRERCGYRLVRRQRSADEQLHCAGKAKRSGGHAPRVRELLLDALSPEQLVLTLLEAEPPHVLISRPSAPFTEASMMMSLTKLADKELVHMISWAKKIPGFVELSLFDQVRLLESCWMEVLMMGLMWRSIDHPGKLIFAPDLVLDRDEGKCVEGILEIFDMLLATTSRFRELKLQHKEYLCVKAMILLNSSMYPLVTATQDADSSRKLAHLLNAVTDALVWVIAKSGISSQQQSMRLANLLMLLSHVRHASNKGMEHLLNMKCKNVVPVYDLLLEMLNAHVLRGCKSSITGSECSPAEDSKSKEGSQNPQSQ
The target of test [7] is T2, Estrogen receptor beta.
The target of test [8] is T3, Bcl-2-like protein 10 (Homo sapiens, UniProt Q9HD36).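 Also: fluorescence polarization from a fluorescein-labelled TR3 peptide binding purified Bcl-B.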
T3 sequence (Q9HD36 whole entry): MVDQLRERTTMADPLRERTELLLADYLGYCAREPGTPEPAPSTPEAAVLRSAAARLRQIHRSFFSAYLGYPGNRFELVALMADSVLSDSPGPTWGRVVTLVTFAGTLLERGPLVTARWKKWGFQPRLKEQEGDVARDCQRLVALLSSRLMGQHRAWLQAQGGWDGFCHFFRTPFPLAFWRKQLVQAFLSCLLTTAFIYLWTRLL
The experiment in a line: Bcl-B/TR3 peptide binding disruption – biochemical, fluorescence polarization, FITC-TR3 peptide, selectivity assay for Bfl-1 inhibitor project, primary screen (AID 748). (In fluorescence polarisation assays a small probe gives low polarisation when free and higher when bound to something large.)

The target of test [9] is T4, Estrogen receptor (Homo sapiens, UniProt P03372).
T4 sequence (P03372 whole entry): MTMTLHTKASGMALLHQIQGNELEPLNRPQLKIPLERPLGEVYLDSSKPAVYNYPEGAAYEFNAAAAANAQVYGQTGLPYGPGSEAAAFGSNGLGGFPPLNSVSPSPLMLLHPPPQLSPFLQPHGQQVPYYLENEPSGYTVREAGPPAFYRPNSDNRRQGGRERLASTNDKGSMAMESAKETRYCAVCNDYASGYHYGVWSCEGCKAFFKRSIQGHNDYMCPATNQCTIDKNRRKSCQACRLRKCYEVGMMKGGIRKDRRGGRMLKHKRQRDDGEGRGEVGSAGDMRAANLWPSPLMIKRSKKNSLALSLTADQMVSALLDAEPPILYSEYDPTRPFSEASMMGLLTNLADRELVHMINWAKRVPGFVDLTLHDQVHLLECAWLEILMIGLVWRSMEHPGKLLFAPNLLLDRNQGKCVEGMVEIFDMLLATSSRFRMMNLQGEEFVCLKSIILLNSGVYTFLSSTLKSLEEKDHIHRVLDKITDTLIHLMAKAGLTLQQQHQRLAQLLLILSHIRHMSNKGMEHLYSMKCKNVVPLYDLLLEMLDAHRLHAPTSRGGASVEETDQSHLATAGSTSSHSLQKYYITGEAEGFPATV

Test [10] concerns the target Luciferin 4-monooxygenase (Photinus pyralis, UniProt P08659). In words: Counter Screen for Luciferase-based Assay Positives. [Related pubchem assays: 620, 618, 411 ]. In general terms: The purpose of a counterscreen is to sort out artefacts and off-target activity.
For test [11], the system named is Escherichia coli. In words: microbe, parasite or virus in culture.
The nature of test [12]: Trypanosoma cruzi growth suppression in host cells – NIH3T3 host cells, beta-gal luminescence, confirmation (AID 2044).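 Also: intracellular parasites grown in NIH/3T3 mouse fibroblasts as host cells; luminescent beta-galactosidase reporter signal from transgenic T. cruzi replicating inside host cells; inhibitors lower the luminescence signal.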 Type of test: functional, cell-based.
Test [13] can be described thus: NIH3T3 cell viability loss – ATP luminescence, mouse fibroblasts, counter-screen, dose response (AID 2010).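 Also: cells exposed to compound for about 90 hours before reading.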 The test is classed as functional, cell-based.
Test [14] can be described thus: Luminescence Cell-Based Dose Retest to Confirm Inhibitors of Cancer Stem Cells. [Related pubchem assays (depositor defined):AID2717, AID2721]. The conditions noted are these: Homo sapiens. The test is classed as functional.
Test [15] concerns the target T5, Ubiquitin-conjugating enzyme E2 N (Homo sapiens, UniProt P61088).
T5 sequence (P61088 whole entry): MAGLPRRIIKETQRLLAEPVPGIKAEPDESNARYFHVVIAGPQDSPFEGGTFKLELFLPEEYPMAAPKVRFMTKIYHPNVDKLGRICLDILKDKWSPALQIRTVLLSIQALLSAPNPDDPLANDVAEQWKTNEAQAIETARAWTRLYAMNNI
The test is classed as functional.

Test [16] concerns the target T5, Ubiquitin-conjugating enzyme E2 N. The test is classed as functional. The source holds these as a separate data set.
Test [17] is described as follows: MIN6 cell viability loss – mouse insulinoma, cytotoxicity control, dose response (AID 2122).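 Also: confirmatory high-throughput counterscreen run to flag cytotoxic compounds.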 Type of test: functional.
Test [18] concerns the target T1, Heat shock factor protein 1. In words: enhancement of HSF1-driven luciferase signal – cell-based, NIH3T3, luminescence, dose retest, confirmation (AID 435004).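 Also: stress induced by proteasome inhibitor MG132 added 30 min after compound; luciferase reporter driven by HSF1 response element in NIH3T3 cells; actives raise luminescence as potentiators of the MG132 stress response.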 The test is classed as functional.
Test [19] in a line: decrease of insulin promoter-GFP reporter – imaging, high-content screening, mouse beta cells (AID 1628). The test is classed as functional. Particulars: MIN6.
The target in test [20] is T6, Apoptotic protease-activating factor 1 (Homo sapiens, UniProt O14727).
T6 sequence (O14727 whole entry): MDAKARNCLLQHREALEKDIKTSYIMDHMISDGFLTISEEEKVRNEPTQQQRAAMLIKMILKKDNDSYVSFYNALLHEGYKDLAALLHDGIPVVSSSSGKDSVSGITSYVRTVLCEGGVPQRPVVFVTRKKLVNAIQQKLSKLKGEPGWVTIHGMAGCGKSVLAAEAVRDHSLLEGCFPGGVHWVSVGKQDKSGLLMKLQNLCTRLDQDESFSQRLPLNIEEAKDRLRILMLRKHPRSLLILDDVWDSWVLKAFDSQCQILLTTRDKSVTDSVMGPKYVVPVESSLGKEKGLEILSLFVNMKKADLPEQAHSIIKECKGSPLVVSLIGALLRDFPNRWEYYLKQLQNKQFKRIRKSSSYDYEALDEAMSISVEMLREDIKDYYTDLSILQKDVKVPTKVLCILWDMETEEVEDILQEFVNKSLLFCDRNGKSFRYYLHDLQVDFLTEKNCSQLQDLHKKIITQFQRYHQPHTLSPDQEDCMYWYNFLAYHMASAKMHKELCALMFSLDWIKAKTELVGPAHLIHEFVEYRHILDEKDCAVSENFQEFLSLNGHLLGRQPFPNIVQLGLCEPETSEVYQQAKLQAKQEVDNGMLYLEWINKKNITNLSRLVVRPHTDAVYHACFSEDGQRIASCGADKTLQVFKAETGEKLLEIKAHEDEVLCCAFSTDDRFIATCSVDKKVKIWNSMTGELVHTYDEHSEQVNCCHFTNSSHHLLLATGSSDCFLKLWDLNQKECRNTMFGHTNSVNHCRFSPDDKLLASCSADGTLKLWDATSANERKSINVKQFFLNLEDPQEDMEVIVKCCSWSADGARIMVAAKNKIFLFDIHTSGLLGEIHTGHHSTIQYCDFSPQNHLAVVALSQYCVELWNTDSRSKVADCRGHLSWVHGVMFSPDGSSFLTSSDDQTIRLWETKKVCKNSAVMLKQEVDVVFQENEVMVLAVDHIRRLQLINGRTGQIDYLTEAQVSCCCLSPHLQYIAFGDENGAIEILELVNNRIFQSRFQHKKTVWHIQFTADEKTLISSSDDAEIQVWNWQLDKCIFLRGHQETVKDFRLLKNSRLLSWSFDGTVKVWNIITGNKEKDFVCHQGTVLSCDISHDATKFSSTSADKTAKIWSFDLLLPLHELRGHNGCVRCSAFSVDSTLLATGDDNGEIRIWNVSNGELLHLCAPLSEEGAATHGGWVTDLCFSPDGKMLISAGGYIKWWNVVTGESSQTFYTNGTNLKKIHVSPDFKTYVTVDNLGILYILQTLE
Type of test: functional.

Test [21] has as its target Neurotensin receptor type 1 (Homo sapiens, UniProt P30989). Type of test: functional.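 Also: Image-based confirmatory dose-response assay measuring agonist activity at NTR1; NTR1-expressing U2OS osteosarcoma cells imaged for beta-arrestin GFP spot formation; agonist potency where compounds increase beta-arrestin recruitment.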
The target in test [22] is T7, Bcl-2-related protein A1 (Mus musculus, UniProt Q07440).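 Also: confirmatory dose–response counterscreen on Bfl-1, used to check hits from a UBC13 polyubiquitin inhibitor campaign.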
T7 sequence (Q07440 whole entry): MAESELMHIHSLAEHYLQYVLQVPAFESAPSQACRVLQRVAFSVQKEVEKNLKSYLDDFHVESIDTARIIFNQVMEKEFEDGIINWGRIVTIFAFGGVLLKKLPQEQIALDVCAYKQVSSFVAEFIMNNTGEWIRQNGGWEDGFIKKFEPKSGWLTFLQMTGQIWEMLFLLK
Type of test: functional.

Usually EC50 stands for the midpoint of the concentration-response curve. Broadly, the IC50 is the concentration that gives 50% inhibition. For orientation: AC50 means the midpoint of the concentration-response curve, whichever way the signal moves.

Activity calls are given as the source filed them.

Chain of Peroxisome proliferator-activated receptor gamma/Nuclear receptor coactivator 2 (P37231 whole entry): as the sequence (P37231 whole entry) above
Chain of Peroxisome proliferator-activated receptor gamma/Nuclear receptor coactivator 2 (Q15596 whole entry, further chain): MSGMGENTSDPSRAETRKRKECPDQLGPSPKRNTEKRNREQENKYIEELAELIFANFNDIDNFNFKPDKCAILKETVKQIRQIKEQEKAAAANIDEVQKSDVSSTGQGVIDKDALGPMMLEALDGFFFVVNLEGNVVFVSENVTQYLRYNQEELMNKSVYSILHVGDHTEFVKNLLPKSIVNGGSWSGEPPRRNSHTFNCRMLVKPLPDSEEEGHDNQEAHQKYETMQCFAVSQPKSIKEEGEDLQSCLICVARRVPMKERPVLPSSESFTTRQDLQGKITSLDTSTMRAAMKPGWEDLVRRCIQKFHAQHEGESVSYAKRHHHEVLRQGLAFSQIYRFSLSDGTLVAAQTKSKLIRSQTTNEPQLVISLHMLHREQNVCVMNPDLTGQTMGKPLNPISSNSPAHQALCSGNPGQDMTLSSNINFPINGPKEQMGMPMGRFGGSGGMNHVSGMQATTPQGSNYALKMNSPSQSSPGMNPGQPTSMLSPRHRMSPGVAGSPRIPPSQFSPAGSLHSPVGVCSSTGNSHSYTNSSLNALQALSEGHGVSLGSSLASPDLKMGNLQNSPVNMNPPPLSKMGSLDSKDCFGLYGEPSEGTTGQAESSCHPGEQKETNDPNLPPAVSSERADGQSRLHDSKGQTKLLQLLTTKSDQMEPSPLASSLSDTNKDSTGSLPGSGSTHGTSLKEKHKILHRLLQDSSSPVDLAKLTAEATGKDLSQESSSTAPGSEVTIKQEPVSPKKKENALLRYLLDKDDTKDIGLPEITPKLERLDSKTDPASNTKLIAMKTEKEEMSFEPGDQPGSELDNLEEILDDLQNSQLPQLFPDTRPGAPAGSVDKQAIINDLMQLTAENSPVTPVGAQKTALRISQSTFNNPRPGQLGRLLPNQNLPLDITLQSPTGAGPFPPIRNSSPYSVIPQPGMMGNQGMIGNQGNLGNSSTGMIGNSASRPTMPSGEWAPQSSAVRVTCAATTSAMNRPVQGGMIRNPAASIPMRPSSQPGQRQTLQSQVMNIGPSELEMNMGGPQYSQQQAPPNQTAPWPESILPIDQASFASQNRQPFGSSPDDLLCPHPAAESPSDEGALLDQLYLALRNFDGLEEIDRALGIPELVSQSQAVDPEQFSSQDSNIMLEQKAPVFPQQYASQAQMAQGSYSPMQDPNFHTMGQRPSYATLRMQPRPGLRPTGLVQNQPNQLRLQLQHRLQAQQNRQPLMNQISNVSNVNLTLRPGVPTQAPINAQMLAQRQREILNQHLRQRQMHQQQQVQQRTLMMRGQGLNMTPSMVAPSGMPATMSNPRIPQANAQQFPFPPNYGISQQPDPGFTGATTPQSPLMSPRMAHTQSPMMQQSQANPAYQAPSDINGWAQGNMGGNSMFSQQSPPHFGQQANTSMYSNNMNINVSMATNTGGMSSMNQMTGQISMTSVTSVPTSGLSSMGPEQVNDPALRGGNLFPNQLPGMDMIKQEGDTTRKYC
Chain of Luciferin 4-monooxygenase (P08659 whole entry): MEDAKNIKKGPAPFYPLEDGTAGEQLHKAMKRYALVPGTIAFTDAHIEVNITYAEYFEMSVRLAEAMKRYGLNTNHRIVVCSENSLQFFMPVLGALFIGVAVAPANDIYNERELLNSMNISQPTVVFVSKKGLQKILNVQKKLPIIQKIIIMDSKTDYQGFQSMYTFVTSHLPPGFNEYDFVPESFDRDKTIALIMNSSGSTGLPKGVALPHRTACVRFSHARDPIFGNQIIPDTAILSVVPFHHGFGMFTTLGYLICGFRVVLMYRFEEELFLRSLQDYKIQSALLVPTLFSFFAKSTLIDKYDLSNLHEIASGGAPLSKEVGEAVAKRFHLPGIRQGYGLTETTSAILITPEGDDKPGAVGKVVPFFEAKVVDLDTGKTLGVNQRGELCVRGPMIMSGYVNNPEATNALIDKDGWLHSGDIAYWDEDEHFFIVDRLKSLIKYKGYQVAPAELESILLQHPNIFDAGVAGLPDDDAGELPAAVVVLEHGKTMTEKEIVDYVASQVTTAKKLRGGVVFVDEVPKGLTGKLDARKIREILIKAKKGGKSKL

Regarding `Cn1c(S)nnc1-c1sc2cc(C(F)(F)F)cnc2c1-c1cccnc1`, the EC50 is 20.2 µM (not active) in test [1], > 195 µM (not active) in test [2], 7.93 µM (active) in test [3] and 4.86 µM (active) in [4].
In the case of `COc1ccc(C2CC(c3ccc(Br)cc3)=NN2C(S)=Nc2ccccc2)cc1` (centres undefined), the EC50 is > 79.4 µM (not active) in [1], 30.2 µM (not active) in test [3] and 31.8 µM (inactive) in test [4].
As to `CCc1ccc(NC(=O)c2noc3c2CCC3)cc1`, the EC50 in test [5] is > 50 µM (not active); in [10], 1.4 µM (active). Besides, the concentration for half-maximal inhibition (IC50) is < 0.023 µM (not active) in test [6], 5.5 µM (active) in [7], 21.7 µM (active) in test [8] and 7.94 µM (active) in [9].
In the case of `C=CCn1c(SCC(=O)OC)nc2sc3c(c2c1=O)CCN(C)C3`, the IC50 in test [8] was 71 µM (inactive).
As to `N#Cc1cc(C(=O)c2cc(Br)ccc2O)cn(Cc2ccccc2)c1=O`, the concentration giving a half-maximal response (EC50) was > 79.4 µM (not active) in [1], > 79.4 µM (not active) in [3] and > 79.4 µM (inactive) in [4].
For the compound `COC(C(=O)Nc1ccnn1C1CCN(Cc2ccc(C)o2)CC1)c1ccccc1` (centres undefined), the AC50 in test [11] is 74.5 µM (active).
Consider `CCCCCCOc1ccc(/C(C)=N/NC2=NCCN2)cc1[N+](=O)[O-]`, for which the EC50 is 2.15 µM (active) in [12], > 30 µM (not active) in test [13], > 260 µM (inactive) in [18] and 18.9 µM (active) in test [21]. The half-maximal activity concentration (AC50) in test [14] was 4.9 µM (active). Moreover, the IC50 in test [15] was 12.6 µM (active); in [16], 12.1 µM (active); in test [17] it was 2.11 µM (active); in [19], 2.34 µM (active); in test [20], 70.5 µM (active); in test [22], > 20 µM (inactive).
